# Source: patent US20240174662A1, “SMALL MOLECULE INHIBITORS OF SALT INDUCIBLE KINASES” (Janssen Biotech, Inc., priority 2021, published 2024)
# Biological target: SIK2 (Homo sapiens (Human), UniProt Q9H0K1)
# Assay: SIK2 Enzymatic Assay Version 2 (High ATP)
# Format: biochemical
# Conditions: 3 mM ATP and 200 μM HDAC5tide final, ADP-Glo Max luminescence
# How it was run: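 Run at room temperature; SIK2 enzyme at 6 nM (2× final) preincubated with compound 30 min before reaction. ADP formation detected by ADP-Glo Max (2 h reagent, 1 h detection) with luminescence read-out.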
# SIK2, sequence (Q9H0K1 whole entry, species assumed): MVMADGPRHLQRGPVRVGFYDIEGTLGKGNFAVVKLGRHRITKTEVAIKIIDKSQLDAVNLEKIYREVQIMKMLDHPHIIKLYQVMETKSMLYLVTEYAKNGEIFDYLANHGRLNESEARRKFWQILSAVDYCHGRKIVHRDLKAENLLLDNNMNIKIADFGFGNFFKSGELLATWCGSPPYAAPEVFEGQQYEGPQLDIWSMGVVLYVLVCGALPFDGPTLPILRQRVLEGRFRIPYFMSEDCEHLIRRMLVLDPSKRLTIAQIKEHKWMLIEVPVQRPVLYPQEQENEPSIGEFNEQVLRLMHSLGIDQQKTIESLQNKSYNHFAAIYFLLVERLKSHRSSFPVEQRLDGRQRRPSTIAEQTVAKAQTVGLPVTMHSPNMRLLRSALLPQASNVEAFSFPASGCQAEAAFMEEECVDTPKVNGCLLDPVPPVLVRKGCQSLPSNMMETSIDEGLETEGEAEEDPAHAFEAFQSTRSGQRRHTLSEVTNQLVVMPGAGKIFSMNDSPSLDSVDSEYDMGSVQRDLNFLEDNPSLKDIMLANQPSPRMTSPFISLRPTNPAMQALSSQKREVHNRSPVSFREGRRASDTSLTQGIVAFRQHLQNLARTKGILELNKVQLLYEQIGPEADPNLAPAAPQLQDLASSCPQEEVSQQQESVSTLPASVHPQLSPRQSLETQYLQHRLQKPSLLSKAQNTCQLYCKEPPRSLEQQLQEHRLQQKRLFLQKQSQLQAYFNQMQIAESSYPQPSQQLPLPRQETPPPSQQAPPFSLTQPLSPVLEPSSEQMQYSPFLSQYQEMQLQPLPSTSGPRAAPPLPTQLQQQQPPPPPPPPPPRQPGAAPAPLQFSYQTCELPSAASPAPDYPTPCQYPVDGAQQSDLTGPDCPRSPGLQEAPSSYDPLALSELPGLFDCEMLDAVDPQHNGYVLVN
row,IC50,Structure (SMILES)
1,53.5 nM,"Cc1cc(Nc2cc3cc(-c4c(OC[C@@H]5CC6(CCC6)CO5)cnn4C)ccn3n2)nc(C)n1 (single isomer, unassigned) [Example 358, *S—N-(2,6-dimethylpyrimidin-4-yl)-5-[2-methyl-4-(7-oxaspiro[3.4]octan-6-ylmethoxy)pyrazol-3-yl]pyrazolo[1,5-a]pyridin-2-amine]"
2,124 nM,"CO[C@H]1CNC[C@H]1Oc1noc(C)c1-c1ccn2nc(NC(=O)C3CC3)cc2c1 (single isomer, unassigned) [Example 385, (3*R,4*S)—N-[5-[3-(4-methoxypyrrolidin-3-yl)oxy-5-methyl-isoxazol-4-yl]pyrazolo[1,5-a]pyridin-2-yl]cyclopropanecarboxamide]"
3,107 nM,"Cn1ncc(OC[C@@H](O)C(F)(F)F)c1-c1ccn2nc(NC(=O)C3CC3)cc2c1 (single isomer, unassigned) [Example 401, (*R)—N-[5-[2-methyl-4-(3,3,3-trifluoro-2-hydroxy-propoxy)pyrazol-3-yl]pyrazolo[1,5-a]pyridin-2-yl]cyclopropanecarboxamide]"
4,86.9 nM,"CO[C@H]1CN(C)C[C@H]1Oc1cnn(C)c1-c1ccn2nc(NC(=O)C3CC3)cc2c1 (single isomer, unassigned) [Example 411, (3*R,4*S)—N-[5-[4-(4-methoxy-1-methyl-pyrrolidin-3-yl)oxy-2-methyl-pyrazol-3-yl]pyrazolo[1,5-a]pyridin-2-yl]cyclopropanecarboxamide]"
5,140 nM,"C[C@H]1CNC[C@H]1Oc1cnn(C)c1-c1ccn2nc(NC(=O)C3CC3)cc2c1 (single isomer, unassigned) [Example 413, (3*S,4*S)—N-[5-[2-methyl-4-(4-methylpyrrolidin-3-yl)oxy-pyrazol-3-yl]pyrazolo[1,5-a]pyridin-2-yl]cyclopropanecarboxamide]"
6,98.7 nM,"Cn1ncc(O[C@@H]2CNC[C@H]2O)c1-c1ccn2nc(NC(=O)C3CC3)cc2c1 (single isomer, unassigned) [Example 414, (3*R,4*R)—N-[5-[4-(4-hydroxypyrrolidin-3-yl)oxy-2-methyl-pyrazol-3-yl]pyrazolo[1,5-a]pyridin-2-yl]cyclopropanecarboxamide]"
7,102 nM,"C[C@@H]1CN(C)C[C@@H]1Oc1cnn(C)c1-c1ccn2nc(NC(=O)C3CC3)cc2c1 (single isomer, unassigned) [Example 418, (3*R,4*R)—N-[5-[4-(1,4-dimethylpyrrolidin-3-yl)oxy-2-methyl-pyrazol-3-yl]pyrazolo[1,5-a]pyridin-2-yl]cyclopropanecarboxamide]"
8,174 nM,"Cc1cc(Nc2cc3cc(-c4c(OC[C@]5(O)CCOC5)cnn4C)ccn3n2)nc(C)n1 (single isomer, unassigned) [Example 439, (*S)-3-[[5-[2-[(2,6-dimethylpyrimidin-4-yl)amino]pyrazolo[1,5-a]pyridin-5-yl]-1-methyl-pyrazol-4-yl]oxymethyl]tetrahydrofuran-3-ol]"
9,70.1 nM,"Cc1cc(Nc2cc3cc(-c4c(OC[C@]5(C)CCOC5)cnn4C)ccn3n2)nc(C)n1 (single isomer, unassigned) [Example 440, (*S)—N-(2,6-dimethylpyrimidin-4-yl)-5-[2-methyl-4-[(3-methyltetrahydrofuran-3-yl)methoxy]pyrazol-3-yl]pyrazolo[1,5-a]pyridin-2-amine]"
10,72.9 nM,"Cc1cc(Nc2cc3cc(-c4c(O[C@H]5C[C@@H]6CC[C@H]5O6)cnn4C)ccn3n2)nc(C)n1 (single isomer, unassigned) [Example 441, (1*R, 2*S, 4*S)—N-(2,6-dimethylpyrimidin-4-yl)-5-[2-methyl-4-(7-oxabicyclo[2.2.1]heptan-3-yloxy)pyrazol-3-yl]pyrazolo[1,5-a]pyridin-2-amine]"
11,74.3 nM,"Cc1cc(Nc2cc3cc(-c4c(OC[C@@H]5CC6(CCCC6)CO5)cnn4C)ccn3n2)nc(C)n1 (single isomer, unassigned) [Example 443, (*S)—N-(2,6-dimethylpyrimidin-4-yl)-5-[2-methyl-4-(8-oxaspiro[4.4]nonan-7-ylmethoxy)pyrazol-3-yl]pyrazolo[1,5-a]pyridin-2-amine]"
12,155 nM,"Cc1cc(Nc2cc3cc(-c4c(OC[C@H](O)C5CCC5)cnn4C)ccn3n2)nc(C)n1 (single isomer, unassigned) [Example 444, (*R)-1-cyclobutyl-2-[5-[2-[(2,6-dimethylpyrimidin-4-yl)amino]pyrazolo[1,5-a]pyridin-5-yl]-1-methyl-pyrazol-4-yl]oxy-ethanol]"
13,78.9 nM,"Cc1cc(Nc2cc3cc(-c4c(O[C@@H]5COC[C@@H]5C)cnn4C)ccn3n2)nc(C)n1 (single isomer, unassigned) [Example 445, (3*S,4*S)—N-(2,6-dimethylpyrimidin-4-yl)-5-[2-methyl-4-(4-methyltetrahydrofuran-3-yl)oxy-pyrazol-3-yl]pyrazolo[1,5-a]pyridin-2-amine]"
14,69.7 nM,"Cc1cc(Nc2cc3cc(-c4c(OC[C@]5(C)CCCO5)cnn4C)ccn3n2)nc(C)n1 (single isomer, unassigned) [Example 447, (*S)—N-(2,6-dimethylpyrimidin-4-yl)-5-[2-methyl-4-[(2-methyltetrahydrofuran-2-yl)methoxy]pyrazol-3-yl]pyrazolo[1,5-a]pyridin-2-amine]"
15,115 nM,"Cc1cc(Nc2cc3cc(-c4c(OC[C@@H]5CC[C@@H]5O)cnn4C)ccn3n2)nc(C)n1 (single isomer, unassigned) [Example 448, (1*S,2*S)-2-[[5-[2-[(2,6-dimethylpyrimidin-4-yl)amino]pyrazolo[1,5-a]pyridin-5-yl]-1-methyl-pyrazol-4-yl]oxymethyl]cyclobutanol]"
16,74.9 nM,"Cn1ncc(CO[C@H]2CNCC2(F)F)c1-c1ccn2nc(NC(=O)C3CC3)cc2c1 (single isomer, unassigned) [Example 465, (*S)—N-[5-[4-[(4,4-difluoropyrrolidin-3-yl)oxymethyl]-2-methyl-pyrazol-3-yl]pyrazolo[1,5-a]pyridin-2-yl]cyclopropanecarboxamide]"
17,428 nM,"CN1CC[C@@H]1COc1cnn(C)c1-c1ccn2nc(NC(=O)[C@@H]3C[C@@H]3c3ccccc3)cc2c1 (single isomer, unassigned) [Example 474, (1*R,2*S)—N-(5-(1-methyl-4-(((R)-1-methylazetidin-2-yl)methoxy)-1H-pyrazol-5-yl)pyrazolo[1,5-a]pyridin-2-yl)-2-phenylcyclopropane-1-carboxamide]"
18,10.9 nM,"CO[C@H]1CNC[C@H]1Oc1cnn(C)c1-c1ccn2nc(NC(=O)C3CC3)cc2c1 (stereo in doubt) [Example 5, N-(5-(4-(((3*R,4*S)-4-methoxypyrrolidin-3-yl)oxy)-1-methyl-1H-pyrazol-5-yl)pyrazolo[1,5-a]pyridin-2-yl)cyclopropanecarboxamide]"
19,33.2 nM,"CO[C@@H]1CNC[C@@H]1Oc1cnn(C)c1-c1ccn2nc(NC(=O)C3CC3)cc2c1 (stereo in doubt) [Example 232, (rac-cis)-N-[5-[4-(4-methoxypyrrolidin-3-yl)oxy-2-methyl-pyrazol-3-yl]pyrazolo[1,5-a]pyridin-2-yl]cyclopropanecarboxamide]"
20,3.3 nM,"Cc1cc(Nc2cc3cc(-c4c(CO[C@H]5CN(C)C[C@H]5C)cnn4C)ccn3n2)nc(C)n1 (stereo in doubt) [Example 368, CIS—*R, *R—N-(2,6-dimethylpyrimidin-4-yl)-5-[4-[(1,4-dimethylpyrrolidin-3-yl)oxymethyl]-2-methyl-pyrazol-3-yl]pyrazolo[1,5-a]pyridin-2-amine]"
21,2 nM,"Cc1cc(Nc2cc3cc(-c4c(CO[C@@H]5CN(C)C[C@@H]5C)cnn4C)ccn3n2)nc(C)n1 (stereo in doubt) [Example 369, CIS—*S, *S—N-(2,6-dimethylpyrimidin-4-yl)-5-[4-[(1,4-dimethylpyrrolidin-3-yl)oxymethyl]-2-methyl-pyrazol-3-yl]pyrazolo[1,5-a]pyridin-2-amine]"
22,2.9 nM,"Cc1cncc(Nc2cc3cc(-c4c(CO[C@H]5CN(C)C[C@H]5C)cnn4C)ccn3n2)n1 (stereo in doubt) [Example 370, CIS-Rac-5-[4-[(1,4-dimethylpyrrolidin-3-yl)oxymethyl]-2-methyl-pyrazol-3-yl]-N-(6-methylpyrazin-2-yl)pyrazolo[1,5-a]pyridin-2-amine]"
23,24.4 nM,"Cc1cnc(Nc2cc3cc(-c4c(CO[C@H]5CN(C)C[C@@H]5C)cnn4C)ccn3n2)cn1 (stereo in doubt) [Example 372, Trans-*S, *R-5-[4-[(1,4-dimethylpyrrolidin-3-yl)oxymethyl]-2-methyl-pyrazol-3-yl]-N-(5-methylpyrazin-2-yl)pyrazolo[1,5-a]pyridin-2-amine]"
24,17.3 nM,"Cc1cncc(Nc2cc3cc(-c4c(CO[C@H]5CN(C)C[C@@H]5C)cnn4C)ccn3n2)n1 (stereo in doubt) [Example 374, Trans-*S, *R-5-[4-[(1,4-dimethylpyrrolidin-3-yl)oxymethyl]-2-methyl-pyrazol-3-yl]-N-(6-methylpyrazin-2-yl)pyrazolo[1,5-a]pyridin-2-amine]"
25,3.1 nM,"Cc1cncc(Nc2cc3cc(-c4c(CO[C@@H]5CN(C)C[C@H]5C)cnn4C)ccn3n2)n1 (stereo in doubt) [Example 375, Trans-*R, *S-5-[4-[(1,4-dimethylpyrrolidin-3-yl)oxymethyl]-2-methyl-pyrazol-3-yl]-N-(6-methylpyrazin-2-yl)pyrazolo[1,5-a]pyridin-2-amine]"
26,14.8 nM,"Cc1cnc(Nc2cc3cc(-c4c(CO[C@@H]5CN(C)C[C@H]5C)cnn4C)ccn3n2)cn1 (stereo in doubt) [Example 377, CIS—*R, *R-5-[4-[(1,4-dimethylpyrrolidin-3-yl)oxymethyl]-2-methyl-pyrazol-3-yl]-N-(5-methylpyrazin-2-yl)pyrazolo[1,5-a]pyridin-2-amine]"

row,Structure (SMILES),IC50
1,"Cc1cc(Nc2cc3cc(-c4c(OC[C@@H](O)C56CC(C5)C6)cnn4C)ccn3n2)nc(C)n1 (stereo in doubt) [Example 306, (*S)-1-(3-bicyclo[1.1.1]pentanyl)-2-[5-[2-[(2,6-dimethylpyrimidin-4-yl)amino]pyrazolo[1,5-a]pyridin-5-yl]-1-methyl-pyrazol-4-yl]oxy-ethanol]",36.1 nM
